From US20050197350A1, “Novel quinoline, tetrahydroquinazoline, and pyrimidine derivatives and methods of treatment related to the use thereof” (TAISHO PHARMACEUTICAL CO., LTD., priority 2003, published 2005)

test system: MCH receptors; assay: MCH receptor activity class (method not given); conditions: class by percent of control at 10^−7 M or IC50

Row | Compound | class
1 | COc1cccc([C@@H](C)NC(=O)[C@H]2CC[C@@H](Nc3nc(C)cc(N(C)C)n3)CC2)c1 [compound 2796, cis-4-{[4-(dimethylamino)-6-methylpyrimidin-2-yl]amino}-N-[(1R)-1-(3-methoxyphenyl)ethyl]cyclohexanecarboxamide] | 2 (Class 2: The value of percent of control at 10^−7 M was from 40% to 60% or the value of IC′50 was from 50 nM to 200 nM.)
2 | Cc1cc(N(C)C)nc(N[C@H]2CC[C@@H](C(=O)N[C@@H](C)c3ccc(Cl)cc3)CC2)n1 [compound 2797, cis-N-[(1S)-1-(4-chlorophenyl)ethyl]-4-{[4-(dimethylamino)-6-methylpyrimidin-2-yl]amino}cyclohexanecarboxamide] | 1 (Class 1: The value of percent of control at 10^−7 M was less than 40% or the value of IC50 was less than 50 nM.)
3 | Cc1cc(N(C)C)nc(N[C@H]2CC[C@@H](C(=O)NCc3ccccc3)CC2)n1 [compound 2798, cis-N-benzyl-4-{[4-(dimethylamino)-6-methylpyrimidin-2-yl]amino}cyclohexanecarboxamide] | 2 (Class 2: The value of percent of control at 10^−7 M was from 40% to 60% or the value of IC′50 was from 50 nM to 200 nM.)
4 | Cc1cc(N(C)C)nc(N[C@H]2CC[C@@H](C(=O)NCc3ccc(F)cc3)CC2)n1 [compound 2799, cis-4-{[4-(dimethylamino)-6-methylpyrimidin-2-yl]amino}-N-(4-fluorobenzyl)cyclohexanecarboxamide] | 2 (Class 2: The value of percent of control at 10^−7 M was from 40% to 60% or the value of IC′50 was from 50 nM to 200 nM.)
5 | Cc1cc(N(C)C)nc(N[C@H]2CC[C@@H](C(=O)NCc3ccccc3F)CC2)n1 [compound 2800] | 2 (Class 2: The value of percent of control at 10^−7 M was from 40% to 60% or the value of IC′50 was from 50 nM to 200 nM.)
6 | Cc1cc(N(C)C)nc(N[C@H]2CC[C@@H](C(=O)NCc3ccc(F)c(F)c3)CC2)n1 [compound 2801, cis-N-(3,4-difluorobenzyl)-4-{[4-(dimethylamino)-6-methylpyrimidin-2-yl]amino}cyclohexanecarboxamide] | 1 (Class 1: The value of percent of control at 10^−7 M was less than 40% or the value of IC50 was less than 50 nM.)
7 | COc1ccc([C@H](C)NC(=O)[C@H]2CC[C@@H](Nc3nc(C)cc(N(C)C)n3)CC2)cc1 [compound 2802, cis-4-{[4-(dimethylamino)-6-methylpyrimidin-2-yl]amino}-N-[(1S)-1-(4-methoxyphenyl)ethyl]cyclohexanecarboxamide] | 1 (Class 1: The value of percent of control at 10^−7 M was less than 40% or the value of IC50 was less than 50 nM.)
8 | COc1cccc([C@H](C)NC(=O)[C@H]2CC[C@@H](Nc3nc(C)cc(N(C)C)n3)CC2)c1 [compound 2803, cis-4-{[4-(dimethylamino)-6-methylpyrimidin-2-yl]amino}-N-[(1S)-1-(3-methoxyphenyl)ethyl]cyclohexanecarboxamide] | 2 (Class 2: The value of percent of control at 10^−7 M was from 40% to 60% or the value of IC′50 was from 50 nM to 200 nM.)
9 | Cc1cc(N(C)C)nc(N[C@H]2CC[C@@H](C(=O)N[C@H](C)c3ccc(F)cc3)CC2)n1 [compound 2804] | 2 (Class 2: The value of percent of control at 10^−7 M was from 40% to 60% or the value of IC′50 was from 50 nM to 200 nM.)
10 | Cc1cc(N(C)C)nc(N[C@H]2CC[C@@H](C(=O)N[C@H](C)c3ccc(Cl)cc3)CC2)n1 [compound 2805, cis-N-[(1R)-1-(4-chlorophenyl)ethyl]-4-{[4-(dimethylamino)-6-methylpyrimidin-2-yl]amino}cyclohexanecarboxamide] | 1 (Class 1: The value of percent of control at 10^−7 M was less than 40% or the value of IC50 was less than 50 nM.)
11 | Cc1cc(N(C)C)nc(N[C@H]2CC[C@@H](C(=O)NCc3cccc(I)c3)CC2)n1 [compound 2806, cis-4-{[4-(dimethylamino)-6-methylpyrimidin-2-yl]amino}-N-(3-iodobenzyl)cyclohexanecarboxamide] | 1 (Class 1: The value of percent of control at 10^−7 M was less than 40% or the value of IC50 was less than 50 nM.)
